Tested on: Artemia
Assay: Toxicity in brine shrimp
Format: organism-based
Conditions: in vivo; call rule not given here

C[C@]12CC(=O)O[C@@](C)(CO)[C@@H]1CC[C@@]1(C)c3cocc3CC[C@H]21
Activity: Not Active
